Data published in ChEMBL document CHEMBL4130574, “Discovery of novel 2,4-diarylaminopyrimidine analogues as ALK and ROS1 dual inhibitors to overcome crizotinib-resistant mutants including G1202R” (Eur J Med Chem, 2018).

Assays:
KARPAS-299 = assay: Antiproliferative activity against human KARPAS299 cells harboring NPM-ALK after 72 hrs by MTT assay; assay type: functional, cell-based; details: KARPAS-299, 72 h
HCC78 = assay: Antiproliferative activity against human HCC78 cells harboring SLC34A2-ROS1 after 72 hrs by MTT assay; assay type: functional, cell-based; details: HCC78, 72 h
[1] = target: ALK tyrosine kinase receptor (Homo sapiens, UniProt Q9UM73)
Chain of ALK tyrosine kinase receptor (Q9UM73 whole entry, the tested form may be a part): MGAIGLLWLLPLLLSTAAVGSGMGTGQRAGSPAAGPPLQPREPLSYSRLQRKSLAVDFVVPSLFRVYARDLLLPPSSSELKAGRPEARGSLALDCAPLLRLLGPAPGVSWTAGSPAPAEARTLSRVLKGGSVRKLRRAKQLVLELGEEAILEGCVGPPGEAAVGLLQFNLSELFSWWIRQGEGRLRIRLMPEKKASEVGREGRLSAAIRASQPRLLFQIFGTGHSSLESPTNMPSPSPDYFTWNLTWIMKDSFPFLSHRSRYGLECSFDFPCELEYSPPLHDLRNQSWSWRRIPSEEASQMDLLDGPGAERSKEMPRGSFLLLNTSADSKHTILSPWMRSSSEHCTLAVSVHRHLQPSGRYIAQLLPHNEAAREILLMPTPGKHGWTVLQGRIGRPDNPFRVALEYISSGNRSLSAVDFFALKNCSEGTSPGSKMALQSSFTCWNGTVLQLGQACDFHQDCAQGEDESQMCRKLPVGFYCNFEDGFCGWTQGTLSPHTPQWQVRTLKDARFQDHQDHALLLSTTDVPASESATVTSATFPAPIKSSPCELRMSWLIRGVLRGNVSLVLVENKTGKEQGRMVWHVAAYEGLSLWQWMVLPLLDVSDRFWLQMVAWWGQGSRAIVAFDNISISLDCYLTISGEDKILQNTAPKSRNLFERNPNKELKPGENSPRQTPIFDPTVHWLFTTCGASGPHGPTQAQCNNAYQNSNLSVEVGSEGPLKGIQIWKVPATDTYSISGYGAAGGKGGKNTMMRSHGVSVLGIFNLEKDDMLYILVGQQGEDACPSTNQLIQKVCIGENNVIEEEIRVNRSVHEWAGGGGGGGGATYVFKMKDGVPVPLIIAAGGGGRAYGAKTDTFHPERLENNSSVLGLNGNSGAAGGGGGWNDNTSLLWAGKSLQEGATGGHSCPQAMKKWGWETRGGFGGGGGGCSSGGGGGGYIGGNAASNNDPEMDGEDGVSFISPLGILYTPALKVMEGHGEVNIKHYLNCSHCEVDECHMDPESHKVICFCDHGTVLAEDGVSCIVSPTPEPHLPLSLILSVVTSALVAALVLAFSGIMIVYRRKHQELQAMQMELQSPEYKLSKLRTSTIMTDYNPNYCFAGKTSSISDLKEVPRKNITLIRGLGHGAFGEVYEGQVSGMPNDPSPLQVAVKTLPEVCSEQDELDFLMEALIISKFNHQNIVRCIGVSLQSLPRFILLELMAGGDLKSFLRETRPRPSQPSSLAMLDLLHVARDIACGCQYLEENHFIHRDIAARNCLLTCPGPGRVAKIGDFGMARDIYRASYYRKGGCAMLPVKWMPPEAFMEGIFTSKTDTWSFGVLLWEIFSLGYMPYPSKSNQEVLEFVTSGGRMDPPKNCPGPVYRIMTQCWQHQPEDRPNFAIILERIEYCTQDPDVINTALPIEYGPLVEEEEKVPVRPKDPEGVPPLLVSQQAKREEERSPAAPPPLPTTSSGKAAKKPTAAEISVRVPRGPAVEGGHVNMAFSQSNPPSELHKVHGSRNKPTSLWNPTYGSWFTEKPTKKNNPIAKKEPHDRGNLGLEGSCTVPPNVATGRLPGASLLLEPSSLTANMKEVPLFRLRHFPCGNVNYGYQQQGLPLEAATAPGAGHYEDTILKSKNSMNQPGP
Description: Inhibition of recombinant human N-terminal GST-tagged ALK cytoplasmic domain (1058 to 1620 residues) expressed in baculovirus expression system using peptide substrate after 1 hr by mobility shift assay

[2] = target: Proto-oncogene tyrosine-protein kinase ROS (Homo sapiens, UniProt P08922); assay: Inhibition of recombinant human N-terminal GST-tagged ROS1 cytoplasmic domain (1883 to 2347 residues) expressed in baculovirus expression system using peptide substrate after 1 hr by mobility shift assay
Chain of Proto-oncogene tyrosine-protein kinase ROS (P08922 whole entry, the tested form may be a part): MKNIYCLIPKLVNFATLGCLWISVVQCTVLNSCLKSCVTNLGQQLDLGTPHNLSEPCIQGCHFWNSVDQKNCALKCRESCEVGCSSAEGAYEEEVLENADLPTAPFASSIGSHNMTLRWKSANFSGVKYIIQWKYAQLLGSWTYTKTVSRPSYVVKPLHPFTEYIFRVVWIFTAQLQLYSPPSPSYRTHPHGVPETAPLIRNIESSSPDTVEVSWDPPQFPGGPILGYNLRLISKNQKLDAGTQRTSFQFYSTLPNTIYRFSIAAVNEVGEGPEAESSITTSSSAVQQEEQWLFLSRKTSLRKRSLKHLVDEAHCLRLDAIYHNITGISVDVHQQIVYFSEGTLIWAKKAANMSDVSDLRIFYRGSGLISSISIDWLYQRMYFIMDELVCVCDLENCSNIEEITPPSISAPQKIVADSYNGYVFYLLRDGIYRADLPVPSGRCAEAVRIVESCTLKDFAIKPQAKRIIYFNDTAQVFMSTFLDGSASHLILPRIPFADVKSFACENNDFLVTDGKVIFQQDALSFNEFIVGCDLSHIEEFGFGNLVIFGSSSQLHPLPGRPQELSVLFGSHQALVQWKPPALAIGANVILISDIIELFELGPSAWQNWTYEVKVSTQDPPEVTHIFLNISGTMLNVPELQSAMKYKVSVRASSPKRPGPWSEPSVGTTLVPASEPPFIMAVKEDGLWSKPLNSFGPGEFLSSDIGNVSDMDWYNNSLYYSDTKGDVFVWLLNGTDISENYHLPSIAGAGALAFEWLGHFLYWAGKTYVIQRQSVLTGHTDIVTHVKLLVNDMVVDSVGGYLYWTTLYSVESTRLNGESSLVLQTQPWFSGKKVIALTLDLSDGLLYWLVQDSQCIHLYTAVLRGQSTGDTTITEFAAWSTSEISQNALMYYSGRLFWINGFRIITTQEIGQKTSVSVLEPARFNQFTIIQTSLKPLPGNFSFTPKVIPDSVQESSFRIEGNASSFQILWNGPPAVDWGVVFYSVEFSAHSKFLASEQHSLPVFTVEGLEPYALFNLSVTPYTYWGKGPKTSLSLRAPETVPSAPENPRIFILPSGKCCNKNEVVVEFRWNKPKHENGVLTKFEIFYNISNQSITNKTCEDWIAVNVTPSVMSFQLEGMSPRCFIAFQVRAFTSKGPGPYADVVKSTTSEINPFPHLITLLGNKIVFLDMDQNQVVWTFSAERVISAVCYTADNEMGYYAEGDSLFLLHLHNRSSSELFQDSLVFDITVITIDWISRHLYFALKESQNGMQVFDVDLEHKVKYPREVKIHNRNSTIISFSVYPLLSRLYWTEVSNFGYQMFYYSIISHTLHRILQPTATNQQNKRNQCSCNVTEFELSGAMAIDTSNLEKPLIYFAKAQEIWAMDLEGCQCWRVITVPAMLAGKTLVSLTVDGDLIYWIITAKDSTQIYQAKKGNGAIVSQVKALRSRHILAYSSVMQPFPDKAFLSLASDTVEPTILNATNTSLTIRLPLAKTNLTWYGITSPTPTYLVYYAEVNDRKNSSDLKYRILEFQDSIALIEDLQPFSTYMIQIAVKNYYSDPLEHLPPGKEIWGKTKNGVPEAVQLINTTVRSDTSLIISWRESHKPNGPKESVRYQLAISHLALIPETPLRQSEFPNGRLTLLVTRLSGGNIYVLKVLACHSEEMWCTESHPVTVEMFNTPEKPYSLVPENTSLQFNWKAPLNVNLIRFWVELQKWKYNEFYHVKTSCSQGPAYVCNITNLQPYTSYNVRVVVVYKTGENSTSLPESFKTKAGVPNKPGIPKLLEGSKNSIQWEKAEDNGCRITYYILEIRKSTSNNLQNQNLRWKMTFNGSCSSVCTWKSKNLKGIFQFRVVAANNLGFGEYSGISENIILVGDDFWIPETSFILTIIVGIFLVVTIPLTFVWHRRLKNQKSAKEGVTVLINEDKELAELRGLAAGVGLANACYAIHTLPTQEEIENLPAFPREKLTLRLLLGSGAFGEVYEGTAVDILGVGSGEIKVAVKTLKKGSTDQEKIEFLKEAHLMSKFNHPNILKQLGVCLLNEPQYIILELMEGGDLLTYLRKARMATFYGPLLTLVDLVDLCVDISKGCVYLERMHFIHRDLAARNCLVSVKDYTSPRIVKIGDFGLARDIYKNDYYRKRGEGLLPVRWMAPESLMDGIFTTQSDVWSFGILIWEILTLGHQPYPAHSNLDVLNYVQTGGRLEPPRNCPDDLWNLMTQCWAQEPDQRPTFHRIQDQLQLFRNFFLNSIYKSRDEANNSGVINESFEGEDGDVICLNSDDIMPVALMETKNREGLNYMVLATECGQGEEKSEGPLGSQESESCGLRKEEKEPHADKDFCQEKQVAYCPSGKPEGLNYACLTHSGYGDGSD

[3] = target: Hepatocyte growth factor receptor (Homo sapiens, UniProt P08581); assay: Inhibition of recombinant human N-terminal GST-tagged c-MET cytoplasmic domain (956 to 1390 residues) expressed in baculovirus expression system using peptide substrate after 1 hr by mobility shift assay
[4] = target: Epidermal growth factor receptor (Homo sapiens, UniProt P00533)
Chain of Epidermal growth factor receptor (P00533 whole entry): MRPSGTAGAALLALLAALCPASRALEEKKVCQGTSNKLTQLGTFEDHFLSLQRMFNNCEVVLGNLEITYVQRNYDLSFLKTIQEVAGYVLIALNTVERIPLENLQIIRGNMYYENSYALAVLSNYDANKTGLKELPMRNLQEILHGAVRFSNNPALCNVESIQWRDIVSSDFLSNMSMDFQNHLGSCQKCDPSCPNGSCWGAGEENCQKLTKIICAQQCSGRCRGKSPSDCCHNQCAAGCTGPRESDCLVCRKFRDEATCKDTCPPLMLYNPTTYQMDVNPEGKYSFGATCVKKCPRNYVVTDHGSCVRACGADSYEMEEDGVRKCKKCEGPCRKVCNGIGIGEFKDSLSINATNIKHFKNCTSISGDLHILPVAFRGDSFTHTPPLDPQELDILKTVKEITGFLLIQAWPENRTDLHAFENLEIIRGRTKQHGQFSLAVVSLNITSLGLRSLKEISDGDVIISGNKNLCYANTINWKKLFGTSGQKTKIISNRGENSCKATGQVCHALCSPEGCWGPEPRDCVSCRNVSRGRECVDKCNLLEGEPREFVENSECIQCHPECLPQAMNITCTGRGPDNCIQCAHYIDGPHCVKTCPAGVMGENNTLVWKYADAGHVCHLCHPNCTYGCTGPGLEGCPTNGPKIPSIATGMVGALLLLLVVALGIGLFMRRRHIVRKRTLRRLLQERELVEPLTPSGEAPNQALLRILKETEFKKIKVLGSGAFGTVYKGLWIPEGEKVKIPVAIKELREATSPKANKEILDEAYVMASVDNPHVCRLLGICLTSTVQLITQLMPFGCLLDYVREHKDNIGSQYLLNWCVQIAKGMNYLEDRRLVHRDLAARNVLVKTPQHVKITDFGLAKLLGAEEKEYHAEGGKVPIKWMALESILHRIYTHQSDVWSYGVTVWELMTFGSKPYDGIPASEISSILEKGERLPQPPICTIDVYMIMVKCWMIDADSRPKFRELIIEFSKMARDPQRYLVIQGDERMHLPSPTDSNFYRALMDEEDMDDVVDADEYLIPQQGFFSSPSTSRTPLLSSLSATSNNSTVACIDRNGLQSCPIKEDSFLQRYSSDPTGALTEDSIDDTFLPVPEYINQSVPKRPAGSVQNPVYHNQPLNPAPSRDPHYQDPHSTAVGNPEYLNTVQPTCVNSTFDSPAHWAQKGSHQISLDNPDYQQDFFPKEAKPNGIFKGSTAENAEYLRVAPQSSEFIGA
Description: Inhibition of recombinant human N-terminal GST-tagged EGFR cytoplasmic domain (669 to 1210 residues) expressed in baculovirus expression system using peptide substrate after 1 hr by mobility shift assay

NCI-H2228 = assay: cells; details: Homo sapiens, NCI-H2228, 72 h
Description: Antiproliferative activity against human NCI-H2228 cells harboring EML4-ALK after 72 hrs by MTT assay

A549 = assay: cells; details: Homo sapiens, A549, 72 h
Description: Antiproliferative activity against human A549 cells harboring EGFR after 72 hrs by MTT assay

NCI-H460 = assay: cells; details: Homo sapiens, NCI-H460, 72 h
Description: Antiproliferative activity against human NCI-H460 cells after 72 hrs by MTT assay

[5] = Selectivity ratio of IC50 for human HCC78 cells harboring SLC34A2-ROS1 to IC50 for human KARPAS299 cells harboring NPM-ALK; assay type: functional
[6] = Selectivity ratio of IC50 for human HCC78 cells harboring SLC34A2-ROS1 to IC50 for human NCI-H2228 cells harboring EML4-ALK; assay type: functional

Compound	IC50 (KARPAS-299) [µM]	IC50 (HCC78) [µM]	IC50 [1] [µM]	IC50 [2] [µM]	IC50 [3] [µM]	IC50 [4] [µM]	IC50 (NCI-H2228) [µM]	IC50 (A549) [µM]	IC50 (NCI-H460) [µM]	Ratio IC50 [5]	Ratio IC50 [6]
CCN(CC)Cc1csc(-c2ccc(Nc3ncc(Cl)c(Nc4ccccc4S(=O)(=O)C(C)C)n3)c(OC(C)C)c2)n1	0.32	0.92					0.5	> 1	0.75		
COc1cc(-n2cc(CN3CCCC3)nn2)ccc1Nc1ncc(Cl)c(Nc2ccccc2S(=O)(=O)C(C)C)n1	0.38	0.27					0.41	> 1	> 1		
COc1cc(-n2cc(CN3CCN(S(C)(=O)=O)CC3)nn2)ccc1Nc1ncc(Cl)c(Nc2ccccc2S(=O)(=O)C(C)C)n1	0.14	0.52					0.29	0.7	> 1		
CC(C)Oc1cc(-c2nc(CN3CCCC3)cs2)ccc1Nc1ncc(Cl)c(Nc2ccccc2S(=O)(=O)C(C)C)n1	0.19	> 1					0.35	> 1	> 1		
CC(C)Oc1cc(-c2nc(CNCCO)cs2)ccc1Nc1ncc(Cl)c(Nc2ccccc2S(=O)(=O)C(C)C)n1	0.19	> 1					0.35	> 1	> 1		
COc1cc(-n2cc(CN(C)C)nn2)ccc1Nc1ncc(Cl)c(Nc2ccccc2S(=O)(=O)C(C)C)n1	> 1	0.38					0.48	> 1	> 1		
CC(C)Oc1cc(-c2nc(CN3CCOCC3)cs2)ccc1Nc1ncc(Cl)c(Nc2ccccc2S(=O)(=O)C(C)C)n1	0.14	> 1					0.35	> 1	0.69		
COc1cc(-n2cc(CN3CCC[C@H]3CO)nn2)ccc1Nc1ncc(Cl)c(Nc2ccccc2S(=O)(=O)C(C)C)n1	0.32	0.52					0.38	0.91	> 1		
COc1cc(-n2cc(CNO)nn2)ccc1Nc1ncc(Cl)c(Nc2ccccc2S(=O)(=O)C(C)C)n1	0.82	> 1					> 1	> 1	> 1		
CC1CCN(Cc2csc(-c3ccc(Nc4ncc(Cl)c(Nc5ccccc5S(=O)(=O)C(C)C)n4)c(OC(C)C)c3)n2)CC1	0.24	> 1					0.28	> 1	> 1		
COc1cc(-c2nc(CN3CCCC3)cs2)ccc1Nc1ncc(Cl)c(Nc2ccccc2S(=O)(=O)C(C)C)n1	0.14	0.78					0.34	> 1	> 1		
COc1cc(-c2nc(CNCCO)cs2)ccc1Nc1ncc(Cl)c(Nc2ccccc2S(=O)(=O)C(C)C)n1	0.23	0.33					0.3	> 1	> 1		
CCN(CC)Cc1cn(-c2ccc(Nc3ncc(Cl)c(Nc4ccccc4S(=O)(=O)C(C)C)n3)c(OC)c2)nn1	0.5	> 1					> 1	> 1	> 1		
CC(C)Oc1cc(-c2nc(CNC3CC3)cs2)ccc1Nc1ncc(Cl)c(Nc2ccccc2S(=O)(=O)C(C)C)n1	0.24	> 1					0.37	> 1	> 1		
COc1cc(-n2cc(CN3CCN(C(C)=O)CC3)nn2)ccc1Nc1ncc(Cl)c(Nc2ccccc2S(=O)(=O)C(C)C)n1	0.28	0.35					0.31	> 1	> 1		
CC(C)Oc1cc(-c2nc(CN3CCC[C@H]3CO)cs2)ccc1Nc1ncc(Cl)c(Nc2ccccc2S(=O)(=O)C(C)C)n1	0.2	> 1					0.3	0.85	> 1		
COc1cc(-c2nc(CN3CCC(C)CC3)cs2)ccc1Nc1ncc(Cl)c(Nc2ccccc2S(=O)(=O)C(C)C)n1	0.19	0.38	0.003	0.0085	0.967	> 1	0.23	0.8	> 1		

More lines, in order of falling IC50 (NCI-H2228), values ahead:

IC50 (KARPAS-299) [µM]	IC50 (HCC78) [µM]	IC50 [1] [µM]	IC50 [2] [µM]	IC50 [3] [µM]	IC50 [4] [µM]	IC50 (NCI-H2228) [µM]	IC50 (A549) [µM]	IC50 (NCI-H460) [µM]	Compound	Ratio IC50 [5]	Ratio IC50 [6]
0.12	> 1					0.23	> 1	> 1	CC(C)Oc1cc(-c2nc(CN3CCCCC3)cs2)ccc1Nc1ncc(Cl)c(Nc2ccccc2S(=O)(=O)C(C)C)n1		
0.16	0.47					0.23	> 1	> 1	COc1cc(-c2nc(CN3CCC[C@H]3CO)cs2)ccc1Nc1ncc(Cl)c(Nc2ccccc2S(=O)(=O)C(C)C)n1		
0.13	0.18					0.2	> 1	0.97	COc1cc(-n2cc(CN3CCCCC3)nn2)ccc1Nc1ncc(Cl)c(Nc2ccccc2S(=O)(=O)C(C)C)n1		
0.25	0.32	0.0039	0.0046	0.703	> 1	0.19	> 1	> 1	COc1cc(-n2cc(CN3CCC(C)CC3)nn2)ccc1Nc1ncc(Cl)c(Nc2ccccc2S(=O)(=O)C(C)C)n1		
0.1	0.43					0.18	> 1	> 1	COc1cc(-c2nc(CN3CCCCC3)cs2)ccc1Nc1ncc(Cl)c(Nc2ccccc2S(=O)(=O)C(C)C)n1		
0.18	0.24					0.15	> 1	> 1	COc1cc(-n2cc(CN3CCOCC3)nn2)ccc1Nc1ncc(Cl)c(Nc2ccccc2S(=O)(=O)C(C)C)n1		
0.15	0.49					0.13	> 1	> 1	COc1cc(-c2nc(CN3CCOCC3)cs2)ccc1Nc1ncc(Cl)c(Nc2ccccc2S(=O)(=O)C(C)C)n1		
0.028	0.81	0.0034	0.0193	> 1	> 1	0.099	> 1	> 1	CC(C)Oc1cc(-c2nc(CN3CCN(C)CC3)cs2)ccc1Nc1ncc(Cl)c(Nc2ccccc2S(=O)(=O)C(C)C)n1		
						0.099	> 1	> 1	Cc1cc(Nc2ncc(Cl)c(Nc3ccccc3S(=O)(=O)C(C)C)n2)c(OC(C)C)cc1C1CCNCC1 [CERITINIB]		
0.022	0.093	0.0023	0.0098	0.82	> 1	0.098	> 1	0.87	COc1cc(-c2nc(CN3CCN(C)CC3)cs2)ccc1Nc1ncc(Cl)c(Nc2ccccc2S(=O)(=O)C(C)C)n1	2.3	2.3
0.022	0.58	0.004	0.0134	> 1	> 1	0.089	> 1	> 1	CC(C)Oc1cc(-c2nc(CN3CCN(CCO)CC3)cs2)ccc1Nc1ncc(Cl)c(Nc2ccccc2S(=O)(=O)C(C)C)n1		
0.035	0.081	0.0043	0.008	> 1	0.89	0.087	> 1	> 1	COc1cc(-n2cc(CN3CCNCC3)nn2)ccc1Nc1ncc(Cl)c(Nc2ccccc2S(=O)(=O)C(C)C)n1		
0.037	0.096	0.003	0.003	0.731	0.865	0.08	> 1	0.88	COc1cc(-n2cc(CN3C[C@@H](C)N[C@@H](C)C3)nn2)ccc1Nc1ncc(Cl)c(Nc2ccccc2S(=O)(=O)C(C)C)n1		
